# From patent publication US6809094B2, “Pharmaceutical composition for the treatment of CNS and other disorders” (Pfizer Inc, priority 2000, dated 2004)
# Where a name gives a salt, the structure may show the parent alone.
row,melting point,Compound
1,> 300 °C,Brc1cnc2oc(N3CCN4CCC3CC4)nc2c1
2,> 300 °C,c1ccc2[nH]c(N3CCN4CCC3CC4)nc2c1
3,> 300 °C,c1ccc2cc3oc(N4CCN5CCC4CC5)nc3cc2c1
4,> 300 °C,c1ccc(-c2ccc3oc(N4CCN5CCC4CC5)nc3c2)cc1
5,296.4 °C,O=[N+]([O-])c1ccc2nc(N3CCN4CCC3CC4)oc2c1
6,240.2 °C,O=[N+]([O-])c1ccc2oc(N3CCN4CCC3CC4)nc2c1
7,281.3 °C,c1ccc(-c2ccc3nc(N4CCN5CCC4CC5)oc3c2)cc1
8,167.2 °C,c1ccc2c(c1)ccc1oc(N3CCN4CCC3CC4)nc12
9,> 300 °C,Ic1ccc2oc(N3CCN4CCC3CC4)nc2c1
10,232.1 °C,O=[N+]([O-])c1cccc2oc(N3CCN4CCC3CC4)nc12
11,> 300 °C,c1cncc(-c2ccc3oc(N4CCN5CCC4CC5)nc3c2)c1
12,242.3 °C,O=[N+]([O-])c1cc2nc(N3CCN4CCC3CC4)oc2cc1Cl
13,> 300 °C,O=[N+]([O-])c1cc2oc(N3CCN4CCC3CC4)nc2cc1Cl (as salt: hydrochloride)
